The values that follow come from publication PMC5533163 (Medicines, 2015).

SMILES strings stand for the structures. Read-outs that look alike come from different tables or passages of the source.

One data set deals with T1, CYP1A2 (Homo sapiens, UniProt P05177).
T1 construct: purchased BD Gentest (Woburn, MA, USA)
In words: Inhibition of recombinant CYP1A2. The data set is classed as in vitro ADME. Particulars: recombinant enzyme.

Data set [1] addresses T2, CYP3A4 (Homo sapiens, UniProt P08684). The format is in vitro ADME. The settings on record: Lineweaver-Burk plot, testosterone metabolism. Details: The reaction was initiated by the addition of HLM (0.6 mg/mL protein); tissue Corning Life Sciences (Cambridge, MA, USA); host or cells: pooled human liver microsomes, 25 donors, mixed gender.
Procedure: (§2) The incubation mixture (250 µL) consisted of NADPH regeneration system (NADP^+, glucose-6-phosphate, and G6PDH) in 0.1M potassium phosphate buffer (pH 7.4). […] The reaction was initiated by the addition of HLM (0.6 mg/mL protein). After further incubation of 30 min (for CYP3A4) or 20 min (for CYP2D6) at 37 °C, reaction was terminated by addition of ice-cold acetonitrile containing 5 μL corticosterone (internal standard for CYP3A4, 20 µM) or 5 μL niflumic acid (internal standard for CYP2D6, 1 µM). The mixture was centrifuged at 10,000 rpm for 5 min and the supernatant (200 μL) was transferred into vials for HPLC (CYP3A4) or UHPLC (CYP2D6) analysis. IC50 values were obtained from concentration-response curves generated by plotting log concentration versus % of control by using GraphPad Prism 6 (La Jolla, CA, USA).
(§3) The type of inhibition (competitive or non-competitive) was predicted by Lineweaver-Burk Plot (velocity^−1 vs. substrate^−1). Apparent inhibition constant (Ki) was calculated from the x-intercept of the Dixon plot (slope of the primary plot vs. inhibitor concentration), which was fitted by liner regression using GraphPad Prism 6 (La Jolla, CA, USA).
For another data set, the target named is T3, P-gp (Homo sapiens, UniProt P08183).
T3 construct: host or cells: hMDR1-MDCK-II (canine kidney cells transfected with human MDR1)
In words: P-gp inhibition, calcein-AM uptake in hMDR1-MDCK-II and MDCK-II cells. The data set is classed as cell-based. Particulars: calcein-AM 1 µM, mean ± SD of three experiments.

Data set [2] has as its target T2, CYP3A4. In words: Reversible (co-incubation) and time dependent (pre-incubation) inhibition of recombinant CYP3A4, fluorescent substrate BFC. The format is in vitro ADME. Details: purchased BD Gentest (Woburn, MA, USA). Particulars: based on IC50 shift ratio criterion > 1.5.
Procedure: (§4) The reaction was terminated and fluorescence was measured as described above. IC50 values (pre-incubation assay) were obtained as above. The IC50 shift fold was calculated as the ratio of IC50 (co-incubation)/IC50 (pre-incubation).
In data set [3] the target is T4, CYP2D6 (Homo sapiens, UniProt P10635). Nature of the data set: Reversible (co-incubation) and time dependent (pre-incubation) inhibition of recombinant CYP2D6, fluorescent substrate AMMC. Particulars: for IC50: recombinant enzyme, mean ± SD of three experiments. The data set is classed as in vitro ADME. Details: purchased BD Gentest (Woburn, MA, USA).
The target of data set [4] is T4, CYP2D6. Nature of the data set: Reversible inhibition and enzyme kinetics of CYP2D6 in pooled HLM (dextromethorphan to dextrorphan). The format is in vitro ADME. Details: The reaction was initiated by the addition of HLM (0.6 mg/mL protein); tissue Corning Life Sciences (Cambridge, MA, USA); host or cells: pooled human liver microsomes, 25 donors, mixed gender. The settings on record: for Type of inhibition of CYP2D6 in HLM: Lineweaver-Burk plot.
Procedure: as §2, §3
The quantification of dextromethorphan, dextrorphan and niflumic acid (internal standard) was done by using Agilent LC-quadrupole time-of-flight (QToF) (model 6230)-mass spectrometry (Agilent Technologies, Palo Alto, CA, USA). The UHPLC system consisted of a binary pump, autosampler, degasser, and a column compartment. The mass detector was equipped with an electron spray ionization interface, which was connected to Agilent MassHunter Work Station (B.05.00). Dextromethorphan and dextrorphan were analyzed using an Agilent Zorbax SB-C8 RRHD column (100 mm × 2.1 mm I.D., 1.8 µm). A column temperature of 35 °C and sample temperature of 15 °C were maintained during analysis. The mobile phase consisted of water (A) and Acetonitrile (B), both containing 0.1% formic acid, which were applied in the following linear gradient elution: 0 min, 80%A: 20%B in next 10 min to 30%A: 70%B and in next 2 min to 100% B, at a flow rate of 0.2 mL/min. Separation was followed by a 2 min washing procedure with 100% B and re-equilibration period of 3.0 min. The total run time for analysis was 10 min. The injection volume was 2 µL. […] The LOD and LOQ of dextromethorph and dextrorphan, were 10 ng/mL and 5 ng/mL, respectively.

Another data set addresses T5, CYP2C19 (Homo sapiens, UniProt P33261).
T5 construct: purchased BD Gentest (Woburn, MA, USA)
Nature of the data set: Reversible inhibition of recombinant CYP2C19. The format is in vitro ADME. The settings on record: recombinant enzyme, 100–0.4 µM, data not shown. On the procedure:
(§1) The assay conditions for determining reversible and time dependent inhibition of CYPs were similar as reported earlier. Test samples or positive controls were serially diluted in a solution (100 µL) of cofactors mix, control protein (0.05 mg of protein/mL) and Glucose-6-phosphate dehydrogenase (G6PDH) to achieve six concentrations (100–0.4 µM). To account for any inherent fluorescence, the plates were incubated at 37 °C for 10 min and fluorescence readings were taken. Enzyme substrate mixture (100 µL) was added to initiate the reaction and the plates were further incubated for 15 (CYP1A2), 30 (CYP3A4, 2C9 and 2C19) or 45 min (CYP2D6). The reaction was stopped by the addition of 75 µL of acetonitrile/0.5M Tris base (80:20). Fluorescence was measured on Spectramax M5 plate reader (Molecular Devices, Sunnyvale, CA, USA) at specified excitation and emission wavelengths for each substrate. IC50 values (co-incubation assay) were obtained from concentration-response curves generated by plotting log concentration versus % control.

The next data set concerns the target T6, CYP2C9 (Homo sapiens, UniProt P11712).
T6 construct: purchased BD Gentest (Woburn, MA, USA)
In words: Reversible inhibition of recombinant CYP2C9. The data set is classed as in vitro ADME. Particulars: recombinant enzyme, 100–0.4 µM, data not shown. As to the method:
as §1

For data set [5] the following is noted: humans, cited from earlier work.

T4 sequence (P10635 whole entry): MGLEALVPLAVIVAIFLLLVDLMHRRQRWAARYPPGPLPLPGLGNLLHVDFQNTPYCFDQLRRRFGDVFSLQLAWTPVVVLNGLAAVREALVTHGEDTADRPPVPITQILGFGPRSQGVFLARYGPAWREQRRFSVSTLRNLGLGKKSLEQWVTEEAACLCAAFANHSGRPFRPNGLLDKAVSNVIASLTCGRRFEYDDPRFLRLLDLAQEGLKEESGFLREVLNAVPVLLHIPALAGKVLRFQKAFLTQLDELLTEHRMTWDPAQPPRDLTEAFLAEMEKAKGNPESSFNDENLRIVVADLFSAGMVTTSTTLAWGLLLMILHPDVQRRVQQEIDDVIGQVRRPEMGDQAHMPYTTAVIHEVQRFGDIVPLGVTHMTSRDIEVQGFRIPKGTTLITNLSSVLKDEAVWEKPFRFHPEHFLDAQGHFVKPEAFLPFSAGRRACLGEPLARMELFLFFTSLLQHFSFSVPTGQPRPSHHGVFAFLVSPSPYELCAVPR
T2 sequence (P08684 whole entry): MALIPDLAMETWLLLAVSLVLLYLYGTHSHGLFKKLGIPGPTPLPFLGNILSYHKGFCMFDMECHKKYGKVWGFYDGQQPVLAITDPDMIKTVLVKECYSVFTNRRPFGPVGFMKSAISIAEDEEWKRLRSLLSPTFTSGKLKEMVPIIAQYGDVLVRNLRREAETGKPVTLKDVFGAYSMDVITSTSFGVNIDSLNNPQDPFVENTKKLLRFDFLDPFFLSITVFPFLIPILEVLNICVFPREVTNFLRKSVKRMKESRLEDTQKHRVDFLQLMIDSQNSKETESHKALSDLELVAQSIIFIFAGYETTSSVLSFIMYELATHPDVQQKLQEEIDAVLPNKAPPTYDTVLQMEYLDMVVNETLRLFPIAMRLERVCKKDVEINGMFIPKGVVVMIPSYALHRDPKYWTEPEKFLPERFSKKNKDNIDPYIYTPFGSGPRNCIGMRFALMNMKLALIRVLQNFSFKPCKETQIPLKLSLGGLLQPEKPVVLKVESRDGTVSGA
T5 sequence (P33261 whole entry): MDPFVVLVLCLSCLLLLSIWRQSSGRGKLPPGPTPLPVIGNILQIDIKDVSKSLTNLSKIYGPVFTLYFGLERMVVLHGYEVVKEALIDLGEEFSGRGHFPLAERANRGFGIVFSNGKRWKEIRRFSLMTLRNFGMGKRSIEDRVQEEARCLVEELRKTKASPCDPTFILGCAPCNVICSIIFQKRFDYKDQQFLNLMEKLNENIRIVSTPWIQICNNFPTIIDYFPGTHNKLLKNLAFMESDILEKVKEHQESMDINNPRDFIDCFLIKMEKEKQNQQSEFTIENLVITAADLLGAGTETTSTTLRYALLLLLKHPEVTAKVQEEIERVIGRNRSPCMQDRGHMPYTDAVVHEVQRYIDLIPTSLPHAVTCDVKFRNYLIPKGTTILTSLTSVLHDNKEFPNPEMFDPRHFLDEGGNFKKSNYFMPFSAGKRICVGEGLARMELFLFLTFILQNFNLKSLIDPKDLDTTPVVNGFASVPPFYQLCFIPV
T6 sequence (P11712 whole entry): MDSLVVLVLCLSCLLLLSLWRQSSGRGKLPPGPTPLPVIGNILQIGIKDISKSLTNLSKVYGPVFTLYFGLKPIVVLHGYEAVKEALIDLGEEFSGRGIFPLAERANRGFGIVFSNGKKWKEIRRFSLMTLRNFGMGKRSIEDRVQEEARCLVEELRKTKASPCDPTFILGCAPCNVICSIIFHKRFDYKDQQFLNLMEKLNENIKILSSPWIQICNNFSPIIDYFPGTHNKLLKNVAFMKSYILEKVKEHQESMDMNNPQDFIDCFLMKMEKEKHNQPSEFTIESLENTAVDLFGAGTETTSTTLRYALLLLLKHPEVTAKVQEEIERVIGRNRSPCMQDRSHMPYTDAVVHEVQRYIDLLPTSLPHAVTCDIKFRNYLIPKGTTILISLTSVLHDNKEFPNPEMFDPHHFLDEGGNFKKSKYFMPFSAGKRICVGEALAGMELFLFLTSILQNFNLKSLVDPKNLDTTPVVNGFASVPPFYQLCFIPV
T1 sequence (P05177 whole entry): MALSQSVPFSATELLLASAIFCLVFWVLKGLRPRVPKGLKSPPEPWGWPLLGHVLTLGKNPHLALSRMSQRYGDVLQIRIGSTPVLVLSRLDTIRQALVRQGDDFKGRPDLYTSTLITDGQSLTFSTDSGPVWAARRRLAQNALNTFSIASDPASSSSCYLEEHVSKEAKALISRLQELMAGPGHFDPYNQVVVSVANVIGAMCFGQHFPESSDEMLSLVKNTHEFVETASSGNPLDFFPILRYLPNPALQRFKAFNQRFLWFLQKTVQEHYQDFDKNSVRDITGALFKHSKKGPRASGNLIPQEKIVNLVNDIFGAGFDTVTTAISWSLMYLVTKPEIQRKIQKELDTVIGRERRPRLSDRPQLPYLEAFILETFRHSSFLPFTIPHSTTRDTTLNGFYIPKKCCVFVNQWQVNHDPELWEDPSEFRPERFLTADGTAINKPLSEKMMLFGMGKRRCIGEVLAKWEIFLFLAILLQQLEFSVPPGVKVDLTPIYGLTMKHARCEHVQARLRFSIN
T3 sequence (P08183 whole entry): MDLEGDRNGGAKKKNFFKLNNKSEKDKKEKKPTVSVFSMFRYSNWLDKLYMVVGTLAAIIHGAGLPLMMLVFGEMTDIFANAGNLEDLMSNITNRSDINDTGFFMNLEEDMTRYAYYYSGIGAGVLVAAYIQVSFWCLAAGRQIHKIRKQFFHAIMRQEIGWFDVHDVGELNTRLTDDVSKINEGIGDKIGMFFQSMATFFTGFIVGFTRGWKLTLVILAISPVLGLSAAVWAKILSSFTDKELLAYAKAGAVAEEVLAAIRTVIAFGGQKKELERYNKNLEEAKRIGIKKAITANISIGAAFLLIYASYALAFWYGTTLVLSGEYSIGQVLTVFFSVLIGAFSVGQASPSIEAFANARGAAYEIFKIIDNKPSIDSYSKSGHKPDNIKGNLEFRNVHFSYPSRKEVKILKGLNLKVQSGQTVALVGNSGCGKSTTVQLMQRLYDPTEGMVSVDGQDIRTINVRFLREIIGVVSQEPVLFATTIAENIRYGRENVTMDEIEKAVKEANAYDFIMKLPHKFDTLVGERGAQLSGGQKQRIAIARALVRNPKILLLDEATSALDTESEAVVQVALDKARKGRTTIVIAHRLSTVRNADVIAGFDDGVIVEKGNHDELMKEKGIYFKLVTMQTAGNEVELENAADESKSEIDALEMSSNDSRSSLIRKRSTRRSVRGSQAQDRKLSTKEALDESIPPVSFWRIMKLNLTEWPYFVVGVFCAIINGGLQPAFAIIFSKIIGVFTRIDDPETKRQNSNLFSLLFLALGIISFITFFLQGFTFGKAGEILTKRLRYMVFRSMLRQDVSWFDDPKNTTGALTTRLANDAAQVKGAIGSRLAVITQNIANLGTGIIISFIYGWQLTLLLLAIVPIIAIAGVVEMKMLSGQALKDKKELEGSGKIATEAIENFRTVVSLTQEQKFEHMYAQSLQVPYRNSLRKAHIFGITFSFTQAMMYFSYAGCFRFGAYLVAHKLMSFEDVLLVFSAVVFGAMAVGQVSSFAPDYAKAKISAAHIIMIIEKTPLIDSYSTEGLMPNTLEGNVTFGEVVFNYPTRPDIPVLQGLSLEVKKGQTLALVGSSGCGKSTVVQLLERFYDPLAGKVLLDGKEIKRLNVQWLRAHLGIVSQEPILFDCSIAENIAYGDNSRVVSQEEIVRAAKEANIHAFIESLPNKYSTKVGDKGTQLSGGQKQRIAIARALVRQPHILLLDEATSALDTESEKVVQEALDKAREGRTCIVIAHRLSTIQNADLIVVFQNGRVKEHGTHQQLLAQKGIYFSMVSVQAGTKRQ
Procedure for CYP1A2: as §4
Procedure for P-gp: MDCK-II and hMDR1-MDCK-II cells were seeded in 96-well plates at 70,000 cells/well in 200 µL of culture medium. The medium was changed at 24 h after seeding and the assay was performed 48 h later. Test samples and positive control at various concentrations (100–0.4 µM) were added to the cells in 50 µL of transport buffer and incubated at 37 °C for 10 min. […] The % increase in calcein-AM uptake was calculated as described earlier [18].

For orientation: EC50 means the concentration needed to bring the measured effect to its halfway point. The IC50 is the concentration that gives 50% inhibition. In general, Ki refers to the dissociation constant of the complex between target and ligand, obtained from inhibition or displacement. As to `CCOC(=O)C1=C[C@]2(CC)CCCN3CCc4c(n1c1ccccc41)[C@@H]32` [Vinpocetine, ethyl apovincaminate], the “Inhibition of CYP1A2” value on CYP1A2 was “no activity”. Besides, the “Type of inhibition of CYP3A4 in HLM” value is given as “competitive inhibition” on CYP3A4 [1] and “competitive” on CYP3A4 [1] (listed as vinpocetine). Also, the EC50 at P-gp is 8 µM. For the same compound, the “Time dependent inhibition (TDI) of CYP3A4” value on CYP3A4 [2] is on record as “no TDI”. Besides, at CYP2D6 [3] (based on IC50 shift ratio criterion > 1.5), the “Time dependent inhibition (TDI) of CYP2D6” value is recorded as “no TDI”. Besides, the IC50 on CYP2D6 [3] (30 min pre-incubation (TDI assay), read-out: CYP2D6 (recombinant) IC50 Pre-incubation) is 37 ± 1.6 µM; at CYP2D6 [3] (co-incubation (reversible inhibition), read-out: CYP2D6 (recombinant) IC50 Co-incubation), 6.5 ± 1.1 µM. The “Type of inhibition of CYP2D6 in HLM” value is given as “non-competitive inhibition” on CYP2D6 [4] (dextromethorphan metabolism) and “competitive” at CYP2D6 [4] (dextromethorphan metabolism, listed as vinpocetine). The IC50 at 20 min on CYP2D6 [4] (human, pooled human liver microsomes, pH 7.4, probe dextromethorphan (to dextrorphan), pooled HLM, dextromethorphan as probe substrate) worked out at 19 µM. Besides, the Ki at CYP2D6 [4] (pooled HLM, dextromethorphan metabolism, Dixon plot) was 26 µM. Also, the “Inhibition of CYP2C19” value is “no activity” at CYP2C19 and “No inhibition” on CYP2C19 (listed as vinpocetine). Moreover, the “Inhibition of CYP2C9” value is recorded as “no activity” at CYP2C9 and “No inhibition” on CYP2C9 (listed as vinpocetine). Moreover, the “Maximum plasma concentration (Cmax)” value in [5] (oral) is given as 60 ng/mL. Besides, the Oral bioavailability in data set [5] is listed as 6%.
